Measured values reported in paper PMC9598282 (Antibiotics, 2022).
≈ marks a conversion by molar mass, not a printed value. Where two headings read alike, the source gives them in different places. Bridge positions count the residues as written; N and C are the ends. Square brackets hold non-standard residues; d marks the D form. Peptide text beside a SMILES is read from it. Dab = NCC[C@H](N)C(=O)O

Experiments:
[1] = test system: P. aeruginosa 114228; type: cell-based, Pseudomonas aeruginosa; conditions: 114228, 18 h
Experimental: (§1) For the preparation of the bacterial solution, overnight grown culture was diluted in 0.85% saline solution, adjusted to 0.5 McFarland turbidity and further diluted in Mueller–Hinton broth for inoculation to a final concentration of 5 × 10^5 colony forming units/mL (CFU/mL). The agents were serially diluted two-fold in a 96-well plate, and equal volumes of bacterial solution were subsequently added to the designated wells. The well consisting of bacterial solution served as the positive control, while the well containing only media served as the negative control. The plate was then incubated at 37 °C for 18 h. After incubation, an Emax Plus microplate reader (Molecular Devices, Union City, CA, USA) was used to measure the optical density (OD) at a wavelength of 590 nm to confirm the turbidity. The antibacterial activity corresponded to the MIC, which is defined as the lowest concentration of the agent necessary to inhibit visible bacterial growth.

[2] = test system: P. aeruginosa PAO1; type: cell-based, Pseudomonas aeruginosa; conditions: wild-type
Experimental: as §1

[3] = test system: A. baumannii 92247; type: cell-based, Acinetobacter baumannii; conditions: 92247, 18 h
Experimental: as §1

[4] = test system: A. baumannii ATCC 17978; type: cell-based, Acinetobacter baumannii; conditions: ATCC 17978, 18 h
Experimental: as §1

[5] = test system: A. baumannii LAC-4; type: cell-based, Acinetobacter baumannii; conditions: LAC-4, 18 h
Experimental: as §1

[6] = test system: P. aeruginosa PA 107092; assay: MIC, broth microdilution; type: cell-based, Pseudomonas aeruginosa; conditions: β-lactamase harboring isolate
Experimental: as §1

[7] = test system: P. aeruginosa PA 108590; assay: MIC, broth microdilution; type: cell-based, Pseudomonas aeruginosa; conditions: β-lactamase harboring isolate
Experimental: as §1

[8] = test system: P. aeruginosa PA 109084; assay: MIC, broth microdilution; type: cell-based, Pseudomonas aeruginosa; conditions: β-lactamase harboring isolate
Experimental: as §1

[9] = test system: P. aeruginosa PA 86052; assay: MIC, broth microdilution; type: cell-based, Pseudomonas aeruginosa; conditions: β-lactamase harboring isolate
Experimental: as §1

[10] = test system: P. aeruginosa PA 88949; assay: MIC, broth microdilution; type: cell-based, Pseudomonas aeruginosa; conditions: β-lactamase harboring isolate
Experimental: as §1

[11] = test system: P. aeruginosa 114228; assay: microbe, parasite or virus in culture; type: cell-based, Pseudomonas aeruginosa
Method in brief: (§2)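 Two-fold serial dilutions of antibiotic and guanidinylated polymyxin adjuvant crossed in checkerboard against bacterial inoculum prepared as for susceptibility testing; 18 h at 37 °C, growth read as OD590. FIC index = sum of each agent's MIC in combination divided by its MIC alone; ≤0.5 synergy, >0.5–4 additivity, >4 antagonism.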

[12] = test system: A. baumannii 110193; assay: microbe, parasite or virus in culture; type: cell-based, Acinetobacter baumannii
Method in brief: as §2

[13] = test system: A. baumannii 92247; assay: microbe, parasite or virus in culture; type: cell-based, Acinetobacter baumannii
Method in brief: as §2

[14] = test system: A. baumannii AB027; assay: microbe, parasite or virus in culture; type: cell-based, Acinetobacter baumannii
Method in brief: as §2

[15] = test system: A. baumannii AB031; assay: Checkerboard assay; type: cell-based, Acinetobacter baumannii
Experimental: (§3) The adjuvant properties of the guanidinylated polymyxins were evaluated using the checkerboard assay as previously described. The bacterial solution was prepared as described in the antimicrobial susceptibility assay. The antibiotic of interest and the adjuvant were serially diluted two-fold along the x- and y-axis on a 96-well plate, respectively, resulting in varying concentrations of both agents in each well. Equal volumes of bacterial solution were added to the designated wells. The well consisting of bacterial solution served as the positive control, while the wells containing only media served as the negative control. The plate was then incubated at 37 °C for 18 h. After incubation, an Emax Plus microplate reader (Molecular Devices, Union City, CA, USA) was used to measure the OD at a wavelength of 590 nm to confirm the turbidity. The fractional inhibitory concentration (FIC) index was then determined to establish the relationship between the antibiotic and adjuvant. The FIC index corresponds to the sum of the FICs of the antibiotic and adjuvant. The FIC of each agent is calculated by dividing its MIC when it is used in combination by its MIC when used alone. FIC indices ≤0.5, 0.5 < x ≤ 4 and >4 indicate synergy, additivity and antagonism, respectively.

[16] = test system: E. coli 107115; assay: microbe, parasite or virus in culture; type: cell-based, Escherichia coli
Experimental: as §3

[17] = test system: E. coli 94393; assay: Checkerboard assay; type: cell-based, Escherichia coli
Experimental: as §3

[18] = test system: E. coli 94474; assay: Checkerboard assay; type: cell-based, Escherichia coli
Experimental: as §3

[19] = test system: P. aeruginosa PA 107092; type: cell-based, Pseudomonas aeruginosa
Experimental: as §3

[20] = test system: P. aeruginosa PA 109084; type: cell-based, Pseudomonas aeruginosa
Experimental: as §3

[21] = test system: P. aeruginosa PA 86052; type: cell-based, Pseudomonas aeruginosa; conditions: PA 86052, 18 h
Experimental: as §3

[22] = test system: P. aeruginosa PA 88949; type: cell-based, Pseudomonas aeruginosa
Experimental: as §3

[23] = agent alone, one value per checkerboard plate
[24] = with 8 μM avibactam, adjuvant at 2 (PMBN, GCol), 1 (GPMB) μg/mL
[25] = adjuvant at 0.5 μg/mL as printed

Question: `CC(C)C[C@@H]1NC(=O)[C@@H](Cc2ccccc2)NC(=O)[C@H](CCN)NC(=O)[C@@H](NC(=O)[C@H](CCN)NC(=O)[C@@H](N)[C@@H](C)O)CCNC(=O)[C@H]([C@@H](C)O)NC(=O)[C@H](CCN)NC(=O)[C@H](CCN)NC1=O` [PMBN, polymyxin B nonapeptide] (H-T[Dab][Dab][Dab][dF]L[Dab][Dab]T; lactam 3-C (inferred); N-terminus assumed) was tested. Which MIC [1] did it give?
Answer: The MIC was over 256 µg/mL.

Question: What about the MIC [2] of the same compound?
Answer: Its MIC is 128 µg/mL (≈ 133 µM).

Question: What about the MIC [3] of the same compound?
Answer: Its MIC is over 256 µg/mL.

Question: And the MIC [4]?
Answer: The MIC was over 256 µg/mL.

Question: What about the MIC [5] of the same compound?
Answer: The MIC was over 256 µg/mL.

Question: And the MIC [6]?
Answer: Its MIC is 64 µg/mL (≈ 66.4 µM).

Question: What about the MIC [7] of the same compound?
Answer: Its MIC is 1 µg/mL (≈ 1.04 µM).

Question: And the MIC [8]?
Answer: Its MIC is 32 µg/mL (≈ 33.2 µM).

Question: And the MIC [9]?
Answer: The MIC was 16 µg/mL (≈ 16.6 µM).

Question: And the MIC [10]?
Answer: The MIC was 16 µg/mL (≈ 16.6 µM).

Question: And the MIC alone ([11]; 114228, 18 h)?
Answer: Its MIC alone is 256 µg/mL.

Question: And the Fold-potentiation of aztreonam ([11]; with 8 μg/mL adjuvant)?
Answer: The Fold-potentiation of aztreonam was 1.

Question: And the Fold-potentiation of ceftazidime ([11]; with 8 μg/mL adjuvant)?
Answer: The Fold-potentiation of ceftazidime was 8.

Question: And the Fold-potentiation of erythromycin ([11]; with 8 μg/mL adjuvant)?
Answer: The Fold-potentiation of erythromycin was 1.

Question: And the Fold-potentiation of rifampicin ([11]; with 8 μg/mL adjuvant)?
Answer: The Fold-potentiation of rifampicin was 8.

Question: And the MIC alone ([12]; 110193, 18 h)?
Answer: Its MIC alone is 256 µg/mL.

Question: What about the MIC alone [12, 23] of the same compound?
Answer: The MIC alone was over 256 µg/mL.

Question: What about the Fold-potentiation of ceftazidime ([12]; with 1 μg/mL adjuvant) of the same compound?
Answer: Its Fold-potentiation of ceftazidime is 1.

Question: And the Fold-potentiation of erythromycin ([12]; with 1 μg/mL adjuvant)?
Answer: The Fold-potentiation of erythromycin was 4.

Question: And the Fold-potentiation of rifampicin ([12]; with 1 μg/mL adjuvant)?
Answer: The Fold-potentiation of rifampicin was 32.

Question: What about the MIC alone ([13]; 92247, 18 h) of the same compound?
Answer: Its MIC alone is 256 µg/mL.

Question: And the “Fold potentiation of aztreonam” value ([13]; with 8 μg/mL adjuvant)?
Answer: Its value is 1.

Question: What about the Fold-potentiation of ceftazidime ([13]; with 8 μg/mL adjuvant) of the same compound?
Answer: The Fold-potentiation of ceftazidime was 1.

Question: What about the Fold-potentiation of erythromycin ([13]; with 8 μg/mL adjuvant) of the same compound?
Answer: The Fold-potentiation of erythromycin was 1.

Question: What about the Fold-potentiation of rifampicin ([13]; with 8 μg/mL adjuvant) of the same compound?
Answer: The Fold-potentiation of rifampicin was 32.

Question: And the MIC alone ([14]; AB027, 18 h)?
Answer: Its MIC alone is 256 µg/mL.

Question: What about the MIC alone [14, 23] of the same compound?
Answer: Its MIC alone is over 256 µg/mL.

Question: And the “Fold potentiation of aztreonam” value ([14]; with 8 μg/mL adjuvant)?
Answer: The value was 2.

Question: And the Fold-potentiation of ceftazidime ([14]; with 8 μg/mL adjuvant)?
Answer: The Fold-potentiation of ceftazidime was 2.

Question: And the Fold-potentiation of erythromycin ([14]; with 8 μg/mL adjuvant)?
Answer: The Fold-potentiation of erythromycin was 16.

Question: What about the Fold-potentiation of rifampicin ([14]; with 8 μg/mL adjuvant) of the same compound?
Answer: The Fold-potentiation of rifampicin was 64.

Question: What about the MIC alone [15, 23] of the same compound?
Answer: The MIC alone was over 256 µg/mL.

Question: What about the “Fold potentiation of aztreonam” value ([15]; with 0.5 μg/mL adjuvant) of the same compound?
Answer: The value was 1.

Question: What about the Fold-potentiation of ceftazidime ([15]; with 0.5 μg/mL adjuvant) of the same compound?
Answer: Its Fold-potentiation of ceftazidime is 1.

Question: And the Fold-potentiation of erythromycin ([15]; with 0.5 μg/mL adjuvant)?
Answer: The Fold-potentiation of erythromycin was 4.

Question: What about the Fold-potentiation of rifampicin ([15]; with 0.5 μg/mL adjuvant) of the same compound?
Answer: Its Fold-potentiation of rifampicin is 8.

Question: And the MIC alone ([16]; 107115, 18 h)?
Answer: Its MIC alone is under 256 µg/mL.

Question: And the MIC alone [16, 23]?
Answer: The MIC alone was over 256 µg/mL.

Question: And the Fold-potentiation of erythromycin ([16]; with 1 μg/mL adjuvant)?
Answer: Its Fold-potentiation of erythromycin is 32.

Question: What about the Fold-potentiation of rifampicin ([16]; with 1 μg/mL adjuvant) of the same compound?
Answer: Its Fold-potentiation of rifampicin is 512.

Question: And the Fold-potentiation of ceftazidime ([16]; with 2 μg/mL adjuvant)?
Answer: Its Fold-potentiation of ceftazidime is 32.

Question: And the MIC alone [17, 23]?
Answer: Its MIC alone is over 256 µg/mL.

Question: What about the Fold-potentiation of erythromycin ([17]; with 2 μg/mL adjuvant) of the same compound?
Answer: The Fold-potentiation of erythromycin was 8.

Question: What about the Fold-potentiation of rifampicin ([17]; with 2 μg/mL adjuvant) of the same compound?
Answer: The Fold-potentiation of rifampicin was 8.

Question: What about the MIC alone [18, 23] of the same compound?
Answer: Its MIC alone is over 256 µg/mL.

Question: What about the Fold-potentiation of erythromycin ([18]; with 4 μg/mL adjuvant) of the same compound?
Answer: The Fold-potentiation of erythromycin was 1.

Question: And the Fold-potentiation of rifampicin ([18]; with 4 μg/mL adjuvant)?
Answer: Its Fold-potentiation of rifampicin is 8.

Question: And the MIC adjuvant alone ([19]; PA 107092, 18 h)?
Answer: Its MIC adjuvant alone is 56 µM.

Question: What about the “Fold potentiation of aztreonam” value ([19]; adjuvant at 2 μg/mL as printed) of the same compound?
Answer: Its value is 4.

Question: And the “Fold potentiation of ceftazidime” value ([19]; adjuvant at 2 (PMBN, GCol), 1 (GPMB) μg/mL)?
Answer: The value was 8.

Question: And the “Fold potentiation of aztreonam” value [19, 24]?
Answer: The value was 4.

Question: And the “Fold potentiation of ceftazidime” value [19, 24]?
Answer: The value was 8.

Question: And the MIC adjuvant alone ([20]; PA 109084, 18 h)?
Answer: Its MIC adjuvant alone is 56 µM.

Question: What about the “Fold potentiation of ceftazidime” value ([20]; adjuvant at 1 μg/mL as printed) of the same compound?
Answer: The value was 16.

Question: What about the “Fold potentiation of aztreonam” value ([20]; adjuvant at 1 (PMBN, GCol), 0.5 (GPMB) μg/mL as printed) of the same compound?
Answer: Its value is 16.

Question: And the “Fold potentiation of ceftazidime” value ([20]; with 8 μM avibactam, adjuvant at 2 μg/mL as printed)?
Answer: Its value is 4.

Question: What about the “Fold potentiation of aztreonam” value ([20]; with 8 μM avibactam, adjuvant at 2 (PMBN), 0.5 (GCol, GPMB) μg/mL as printed) of the same compound?
Answer: Its value is 16.

Question: What about the MIC adjuvant alone [21] of the same compound?
Answer: Its MIC adjuvant alone is 16 µM.

Question: What about the MIC adjuvant alone ([22]; PA 88949, 18 h) of the same compound?
Answer: Its MIC adjuvant alone is 16 µM.

Question: What about the “Fold potentiation of aztreonam” value [22, 25] of the same compound?
Answer: The value was 1.

Question: And the “Fold potentiation of ceftazidime” value [22, 25]?
Answer: The value was 1.
